The source of these data is patent US20240150303A1, “DIAMINOTRIAZINE COMPOUNDS” (BASF SE, priority 2021, published 2024).

Common to all, as to test: greenhouse pre-emergence herbicidal test
Holding throughout (format): in vivo

The test system of one assay is Setaria faberi. An outline of the steps:
(§1)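 Seeds sown per species; compounds suspended or emulsified in water and sprayed directly after sowing, pots irrigated and covered with transparent hoods until rooting. Evaluated over 2 to 4 weeks on a 0–100 scale (100 = no emergence or complete destruction of aerial parts, 0 = normal growth).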

Another assay deals with Lolium multiflorum. The text has this: (§2) The culture containers used were plastic flowerpots containing loamy sand with approximately 3.0% of humus as the substrate. The seeds of the test plants were sown separately for each species.
(§3) For the pre-emergence treatment, the active ingredients, which had been suspended or emulsified in water, were applied directly after sowing by means of finely distributing nozzles.
(§4) The containers were irrigated gently to promote germination and growth and subsequently covered with transparent plastic hoods until the plants had rooted. This cover caused uniform germination of the test plants, unless this had been impaired by the active ingredients.
(§5) Depending on the species, the plants were kept at 10-25° C. or 20-35° C., respectively.
(§6) The test period extended over 2 to 4 weeks. During this time, the plants were tended, and their response to the individual treatments was evaluated.
(§7) Evaluation was carried out using a scale from 0 to 100. 100 means no emergence of the plants, or complete destruction of at least the aerial moieties, and 0 means no damage, or normal course of growth. A moderate herbicidal activity is given at values of at least 60, a good herbicidal activity is given at values of at least 70, and a very good herbicidal activity is given at values of at least 85.
(§8) The plants used in the greenhouse experiments were of the following species: […]

In a further assay the test system is Alopercurus myosuroides.
Text: as §2, §3, §4, §5, §6, §7, §8

The next assay deals with Amaranthus retroflexus. In a few lines: as §1
The subject of the next assay is Echinocloa crus-galli. An outline of the steps:
as §1

The test system of another assay is Digitaria sanguinalis.
Text: as §2, §3, §4, §5, §6, §7, §8

In the next assay the test system is Abutilon theophrasti.
Text: as §2, §3, §4, §5, §6, §7, §8

Another assay relates to Apera spica-venti.
Text: as §2, §3, §4, §5, §6, §7, §8

“And” between values parts separate entries of the source, which are not always exact repeats. Equal entries are not always repeated.

On to `CCC(C)(F)c1nc(N)nc(Nc2c(C)c(Cl)cc(Cl)c2OC)n1` (racemic) [Example 102], for which the figures for the herbicidal activity in the assay with Setaria faberi (62.5 g/ha), in the assay with Lolium multiflorum (62.5 g/ha) and in the assay with Alopercurus myosuroides (62.5 g/ha) were 80%, 90% and 85%, respectively.
The corresponding values for `COc1c(Cl)cc(Cl)c(C)c1Nc1nc(N)nc(C(C)(F)CCl)n1` (racemic) [Example 104] are 85%, 100% and 90%.
Consider `COc1c(Br)ccc(Cl)c1Nc1nc(N)nc(C(C)(C)F)n1` [Example 4], for which the herbicidal activity in the assay on Amaranthus retroflexus (250 g/ha), in the assay on Setaria faberi (250 g/ha), with Echinocloa crus-galli (62.5 g/ha), in the assay with Echinocloa crus-galli (250 g/ha), with Digitaria sanguinalis (62.5 g/ha) and with Abutilon theophrasti (62.5 g/ha) was 100% in each case.
`COc1c(F)cc(Br)c(C)c1Nc1nc(N)nc(C(C)(C)F)n1` [Example 5]: the herbicidal activity in the assay with Amaranthus retroflexus (250 g/ha) is 100%; in the assay with Setaria faberi (250 g/ha) it was 100%; in the assay with Echinocloa crus-galli (250 g/ha) it was 100% and 85%; in the assay on Digitaria sanguinalis (250 g/ha) it was 100%; in the assay with Abutilon theophrasti (250 g/ha) it was 90%.
As for `COc1c(F)cc(Cl)c(C)c1Nc1nc(N)nc(C(C)(C)F)n1` [Example 7], the herbicidal activity in the assay on Amaranthus retroflexus (32 g/ha), with Setaria faberi (125 g/ha), in the assay with Echinocloa crus-galli (125 g/ha), in the assay on Digitaria sanguinalis (32 g/ha), with Abutilon theophrasti (32 g/ha) and in the assay with Abutilon theophrasti (125 g/ha) was 100% in each case.
Turning to `COc1c(F)cc(F)c(C)c1Nc1nc(N)nc(C(C)(C)F)n1` [Example 8], the herbicidal activity with Amaranthus retroflexus (32 g/ha), with Setaria faberi (125 g/ha), in the assay with Echinocloa crus-galli (125 g/ha), with Digitaria sanguinalis (32 g/ha), with Abutilon theophrasti (32 g/ha) and in the assay with Abutilon theophrasti (125 g/ha) was 100% throughout.
For the compound `COc1c(Cl)cc(F)c(Br)c1Nc1nc(N)nc(C(C)(C)F)n1` [Example 11], the herbicidal activity in the assay with Amaranthus retroflexus (32 g/ha), in the assay with Setaria faberi (250 g/ha), in the assay with Echinocloa crus-galli (250 g/ha), in the assay with Digitaria sanguinalis (32 g/ha), in the assay with Alopercurus myosuroides (250 g/ha) and with Abutilon theophrasti (32 g/ha) was 100% throughout.
For `COc1c(Cl)cc(C)c(C)c1Nc1nc(N)nc(C(C)(C)F)n1` [Example 15], the herbicidal activity in the assay on Setaria faberi (31 g/ha) is given as 90%; in the assay with Setaria faberi (125 g/ha), 100%; in the assay on Echinocloa crus-galli (125 g/ha), 100%; in the assay on Lolium multiflorum (31 g/ha) it was 95%; in the assay with Alopercurus myosuroides (31 g/ha), 95%; in the assay on Alopercurus myosuroides (125 g/ha), 100%.
With `CCOc1c(F)cc(F)c(Cl)c1Nc1nc(N)nc(C(C)(C)F)n1` [Example 24], the herbicidal activity with Amaranthus retroflexus (31 g/ha), in the assay with Amaranthus retroflexus (62.5 g/ha), in the assay with Setaria faberi (62.5 g/ha), in the assay with Echinocloa crus-galli (62.5 g/ha) and with Apera spica-venti (31 g/ha) was 100% throughout.
As to `CCOc1c(Br)cc(F)c(Cl)c1Nc1nc(N)nc(C(C)(C)F)n1` [Example 30], the herbicidal activity is recorded as 85% in the assay on Amaranthus retroflexus (31 g/ha); 100% in the assay with Setaria faberi (31 g/ha); 100% in the assay with Alopercurus myosuroides (31 g/ha); 100% in the assay on Abutilon theophrasti (31 g/ha); 85% in the assay with Apera spica-venti (31 g/ha).
`C#CCOc1c(Br)cc(F)c(Cl)c1Nc1nc(N)nc(C(C)(C)F)n1` [Example 31]: the herbicidal activity with Amaranthus retroflexus (250 g/ha), in the assay with Setaria faberi (31 g/ha), with Echinocloa crus-galli (250 g/ha), in the assay on Abutilon theophrasti (31 g/ha), with Abutilon theophrasti (250 g/ha) and in the assay on Apera spica-venti (31 g/ha) was 100% throughout.
For `COc1c(Cl)cc(Cl)c(C)c1Nc1nc(N)nc(C(C)F)n1` (stereo not drawn) [Example 35], the herbicidal activity came out at 100% with Amaranthus retroflexus (62.5 g/ha); 100% in the assay with Amaranthus retroflexus (125 g/ha); 100% with Echinocloa crus-galli (62.5 g/ha); 100% in the assay with Abutilon theophrasti (62.5 g/ha); 95% in the assay on Abutilon theophrasti (125 g/ha); 100% in the assay on Apera spica-venti (125 g/ha).
As to `COc1c(Cl)cc(Cl)c(C)c1Nc1nc(N)nc(C2(F)CCCC2)n1` [Example 36], the herbicidal activity is 100% in the assay with Amaranthus retroflexus (62.5 g/ha); 90% with Setaria faberi (125 g/ha); 100% in the assay on Echinocloa crus-galli (62.5 g/ha); 85% in the assay with Echinocloa crus-galli (125 g/ha); 100% with Abutilon theophrasti (62.5 g/ha); 100% in the assay on Apera spica-venti (125 g/ha).
Take `COc1c(Cl)cc(Cl)c(C)c1Nc1nc(N)nc(C(C)(C)OC)n1` [Example 37]: the herbicidal activity in the assay with Amaranthus retroflexus (62.5 g/ha) is 100%; in the assay on Setaria faberi (125 g/ha), 85%; with Echinocloa crus-galli (62.5 g/ha) it was 100%; in the assay with Abutilon theophrasti (62.5 g/ha) it was 98%; in the assay on Abutilon theophrasti (125 g/ha) it was 85%; in the assay on Apera spica-venti (125 g/ha), 100%.
Turning to `COc1c(Br)cc(C)c(C)c1Nc1nc(N)nc(C(C)(C)F)n1` [Example 45], the herbicidal activity in the assay with Amaranthus retroflexus (62.5 g/ha), in the assay with Setaria faberi (62 g/ha), in the assay with Setaria faberi (62.5 g/ha), in the assay with Echinocloa crus-galli (62.5 g/ha), in the assay with Lolium multiflorum (62 g/ha) and in the assay with Abutilon theophrasti (62 g/ha) was 100% each time.
With `COc1c(Br)cc(C)c(C)c1Nc1nc(N)nc(C(C)F)n1` (stereo not drawn) [Example 46], the herbicidal activity with Amaranthus retroflexus (62 g/ha) stood at 100%; with Amaranthus retroflexus (62.5 g/ha), 100%; in the assay on Setaria faberi (62 g/ha), 100%; with Setaria faberi (62.5 g/ha), 100%; in the assay on Echinocloa crus-galli (62.5 g/ha), 100%; with Lolium multiflorum (62 g/ha), 80%.
With `COc1c(Br)cc(C)c(C)c1Nc1nc(N)nc(C2(F)CCCC2)n1` [Example 47], the herbicidal activity in the assay on Amaranthus retroflexus (62.5 g/ha) is given as 100%; in the assay on Setaria faberi (62 g/ha), 90%; with Setaria faberi (62.5 g/ha) it was 100%; in the assay on Echinocloa crus-galli (62.5 g/ha) it was 100%; with Lolium multiflorum (62 g/ha), 80%.
As to `COc1c(Br)cc(C)c(C)c1Nc1nc(N)nc(C(C)(C)OC)n1` [Example 48], the herbicidal activity is 100% in the assay on Amaranthus retroflexus (31 g/ha); 100% in the assay on Setaria faberi (31 g/ha); 80% in the assay on Setaria faberi (62 g/ha); 70% in the assay with Echinocloa crus-galli (31 g/ha); 90% in the assay on Echinocloa crus-galli (62 g/ha); 98% in the assay on Lolium multiflorum (62 g/ha).
`CC(C)(F)c1nc(N)nc(Nc2c(Cl)ccc(F)c2OCC#CC2CC2)n1` [Example 52]: the herbicidal activity with Amaranthus retroflexus (62 g/ha), in the assay with Setaria faberi (62.5 g/ha), with Echinocloa crus-galli (62 g/ha), in the assay with Echinocloa crus-galli (62.5 g/ha), in the assay with Abutilon theophrasti (62 g/ha) and in the assay on Apera spica-venti (62.5 g/ha) was 100% in each case.
`COc1c(Cl)cc(Br)c(C)c1Nc1nc(N)nc(C(C)(C)F)n1` [Example 60]: the herbicidal activity with Amaranthus retroflexus (31 g/ha) is on record as 100%; in the assay with Amaranthus retroflexus (62 g/ha), 100%; in the assay with Setaria faberi (31 g/ha), 98%; in the assay with Setaria faberi (62 g/ha) it was 100%; in the assay with Abutilon theophrasti (62 g/ha), 100%; with Apera spica-venti (31 g/ha), 95%.
For `C#CCOc1c(Cl)cc(C)c(Cl)c1Nc1nc(N)nc(C(C)(C)F)n1` [Example 64], the herbicidal activity was 100% in the assay with Setaria faberi (62 g/ha), 100% with Echinocloa crus-galli (62 g/ha), 98% in the assay with Lolium multiflorum (62 g/ha) and 100% in the assay with Abutilon theophrasti (62 g/ha).
